According to ChEMBL document CHEMBL1122073, “Structure-activity relationships for 2-substituted imidazoles as alpha 2-adrenoceptor antagonists” (J Med Chem, 1982):
Counter-ions that a name gives are not always drawn.

Tests used:
[1] = target: T1, Adrenergic receptor alpha-1 (Rattus norvegicus, UniProt P15823+P23944+P43140); test: Antagonistic activity against Alpha-1 adrenergic receptor in the epididymal portion of the rat vas deferens; type: functional, tissue-based
T1 sequence (P15823 whole entry): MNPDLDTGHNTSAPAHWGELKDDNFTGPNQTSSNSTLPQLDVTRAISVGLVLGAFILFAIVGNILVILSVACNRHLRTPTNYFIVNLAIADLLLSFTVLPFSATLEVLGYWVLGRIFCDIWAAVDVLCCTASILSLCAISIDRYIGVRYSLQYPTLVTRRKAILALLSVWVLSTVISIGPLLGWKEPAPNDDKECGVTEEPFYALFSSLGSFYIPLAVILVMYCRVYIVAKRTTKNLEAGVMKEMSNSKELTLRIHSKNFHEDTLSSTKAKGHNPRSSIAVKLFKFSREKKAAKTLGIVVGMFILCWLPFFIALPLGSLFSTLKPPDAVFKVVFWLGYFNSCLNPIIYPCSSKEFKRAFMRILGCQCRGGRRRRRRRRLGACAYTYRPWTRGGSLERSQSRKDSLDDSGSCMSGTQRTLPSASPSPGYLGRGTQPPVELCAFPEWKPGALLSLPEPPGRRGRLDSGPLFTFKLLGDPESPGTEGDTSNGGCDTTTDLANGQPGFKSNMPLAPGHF
T1 sequence (P23944 whole entry): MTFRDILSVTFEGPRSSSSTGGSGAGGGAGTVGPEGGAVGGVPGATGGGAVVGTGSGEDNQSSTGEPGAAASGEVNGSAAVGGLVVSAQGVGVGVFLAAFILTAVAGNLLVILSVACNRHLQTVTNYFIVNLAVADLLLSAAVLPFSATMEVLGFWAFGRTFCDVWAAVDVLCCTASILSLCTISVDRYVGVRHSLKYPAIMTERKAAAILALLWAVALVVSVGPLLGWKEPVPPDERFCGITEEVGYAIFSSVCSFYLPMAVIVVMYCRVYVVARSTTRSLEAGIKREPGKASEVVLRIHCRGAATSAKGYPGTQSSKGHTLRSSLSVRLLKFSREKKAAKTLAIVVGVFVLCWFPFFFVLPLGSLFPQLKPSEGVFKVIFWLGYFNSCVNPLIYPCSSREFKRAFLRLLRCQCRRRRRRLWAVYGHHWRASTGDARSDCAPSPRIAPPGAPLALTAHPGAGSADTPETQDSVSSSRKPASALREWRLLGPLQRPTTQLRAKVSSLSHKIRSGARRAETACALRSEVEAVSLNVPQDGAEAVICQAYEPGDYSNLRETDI
T1 sequence (P43140 whole entry): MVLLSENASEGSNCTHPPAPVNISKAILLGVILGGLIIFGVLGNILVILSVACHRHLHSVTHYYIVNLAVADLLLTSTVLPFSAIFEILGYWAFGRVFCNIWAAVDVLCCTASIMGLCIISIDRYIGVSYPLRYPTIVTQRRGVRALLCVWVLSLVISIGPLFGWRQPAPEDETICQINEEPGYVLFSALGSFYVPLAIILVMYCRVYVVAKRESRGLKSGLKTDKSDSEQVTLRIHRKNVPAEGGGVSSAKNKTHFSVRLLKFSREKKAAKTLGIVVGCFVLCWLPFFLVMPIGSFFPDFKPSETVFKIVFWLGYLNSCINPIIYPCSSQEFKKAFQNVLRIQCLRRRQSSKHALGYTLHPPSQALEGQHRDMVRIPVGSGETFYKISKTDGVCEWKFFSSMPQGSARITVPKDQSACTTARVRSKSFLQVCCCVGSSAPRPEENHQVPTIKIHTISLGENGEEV

[2] = target: Adrenergic receptor alpha (Rattus norvegicus) (UniProt P15823+P23944+P43140+P22086+P19328+P22909); test: Selectivity ratio is the […] of alfa2 and alfa1 adrenoceptors; type: protein assay
[3] = Tested for the 1-Octanol distribution coefficient determined by HPLC method (pH 7.4); type: physicochemical; conditions: 1-octanol/aqueous phase
[4] = target: T2, Adrenergic receptor alpha-2 (Rattus norvegicus, UniProt P22086+P19328+P22909); test: Antagonistic activity against Alpha-2 adrenergic receptor in the prostatic portion of the rat vas deferens; type: functional, tissue-based
T2 sequence (P22086 whole entry): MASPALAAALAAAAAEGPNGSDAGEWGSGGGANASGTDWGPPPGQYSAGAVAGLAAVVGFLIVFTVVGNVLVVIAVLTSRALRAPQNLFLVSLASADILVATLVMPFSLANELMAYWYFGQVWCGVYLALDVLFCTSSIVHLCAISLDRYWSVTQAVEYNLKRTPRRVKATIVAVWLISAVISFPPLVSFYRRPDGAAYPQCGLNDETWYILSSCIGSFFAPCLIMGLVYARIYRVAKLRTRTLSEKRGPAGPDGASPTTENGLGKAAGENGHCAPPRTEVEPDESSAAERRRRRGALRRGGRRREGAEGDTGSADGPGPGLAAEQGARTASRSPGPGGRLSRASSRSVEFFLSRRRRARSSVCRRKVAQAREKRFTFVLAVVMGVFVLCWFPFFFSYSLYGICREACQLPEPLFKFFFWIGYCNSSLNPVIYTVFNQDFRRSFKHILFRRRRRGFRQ
T2 sequence (P19328 whole entry): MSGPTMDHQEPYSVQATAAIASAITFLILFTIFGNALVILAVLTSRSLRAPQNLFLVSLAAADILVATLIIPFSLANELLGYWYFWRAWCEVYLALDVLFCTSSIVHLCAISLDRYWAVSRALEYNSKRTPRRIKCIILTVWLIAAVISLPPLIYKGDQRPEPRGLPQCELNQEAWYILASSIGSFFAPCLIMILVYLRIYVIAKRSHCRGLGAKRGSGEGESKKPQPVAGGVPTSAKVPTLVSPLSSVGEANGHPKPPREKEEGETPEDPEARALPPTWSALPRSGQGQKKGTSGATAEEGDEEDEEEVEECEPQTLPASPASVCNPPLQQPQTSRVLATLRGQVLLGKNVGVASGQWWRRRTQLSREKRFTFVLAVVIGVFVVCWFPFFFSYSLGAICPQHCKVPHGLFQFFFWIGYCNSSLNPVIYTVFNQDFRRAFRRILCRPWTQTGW
T2 sequence (P22909 whole entry): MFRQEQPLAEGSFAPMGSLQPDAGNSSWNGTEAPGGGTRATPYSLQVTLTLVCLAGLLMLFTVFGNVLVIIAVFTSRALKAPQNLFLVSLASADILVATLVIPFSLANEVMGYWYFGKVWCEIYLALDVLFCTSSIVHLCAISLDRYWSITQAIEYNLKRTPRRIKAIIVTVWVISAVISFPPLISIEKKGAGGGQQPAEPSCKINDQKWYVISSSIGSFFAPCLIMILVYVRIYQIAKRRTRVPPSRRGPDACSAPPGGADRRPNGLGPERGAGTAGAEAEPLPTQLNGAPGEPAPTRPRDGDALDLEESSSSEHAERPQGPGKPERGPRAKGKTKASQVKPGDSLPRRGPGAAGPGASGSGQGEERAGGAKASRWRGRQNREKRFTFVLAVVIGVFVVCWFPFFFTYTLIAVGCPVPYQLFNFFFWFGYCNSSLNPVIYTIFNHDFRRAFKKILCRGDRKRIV

[5] = target: T1, Adrenergic receptor alpha-1; test: […] activity against Alpha-1 adrenergic receptor in the epididymal portion of the rat vas deferens; type: functional, tissue-based

pA2 [1] | Selectivity ratio [2] | logD [3] | pA2 [4] | pA2 [5] | Structure (SMILES)
4.2 | 102 | 1.99 | – | – | Cl.c1ccc2c(c1)OCC(CCc1ncc[nH]1)O2 (stereo unspecified)
< 4 | > 39.8 | 1.76 | 5.6 | – | Cl.c1ccc2c(c1)OCC(c1ncc[nH]1)O2 (stereo unspecified)
< 5 | > 3.2 | > 2.5 | 5.51 | – | Cl.c1ccc(-c2c[nH]c(CC3COc4ccccc4O3)n2)cc1 (stereo unspecified)
– | – | – | 7.4 | – | c1ccc2c(c1)OCC(CN1CCCCC1)O2 (stereo unspecified) [PIPEROXAN]
– | 38 | – | 6.58 | 5 | COc1cccc(Cn2ccnc2CC2COc3ccccc3O2)c1.Cl (stereo unspecified)
4.3 | 182 | – | 6.56 | – | CC(C)n1ccnc1CC1COc2ccccc2O1 (stereo unspecified)
– | – | 2.4 | – | – | CCCn1ccnc1CC1COc2ccccc2O1 (stereo unspecified)
4.33 | 74.1 | 1.93 | – | – | Cl.Cn1ccnc1CC1COc2ccccc2O1 (stereo unspecified)
< 4.5 | > 219 | – | 6.84 | – | CCCCn1ccnc1CC1COc2ccccc2O1.Cl (stereo unspecified)
– | – | 1.92 | – | – | c1ccc2c(c1)OCC(Cc1ncc[nH]1)O2 (stereo unspecified)
< 4 | – | 2.31 | 6.71 | – | CCn1ccnc1CC1COc2ccccc2O1.Cl (stereo unspecified) [IMILOXAN HYDROCHLORIDE]
– | – | 3.29 | – | – | c1ccc2c(c1)OCC(Cc1nc3ccccc3[nH]1)O2 (stereo unspecified)
– | 69.2 | > 2.5 | 6.84 | 5 | Cl.c1ccc(Cn2ccnc2CC2COc3ccccc3O2)cc1 (stereo unspecified)
< 5 | > 3.2 | – | 5.5 | – | NCC1(c2ccccc2)OCCO1
< 5 | > 10 | – | 6 | – | Clc1cccc(Cl)c1Cn1ccnc1CC1COc2ccccc2O1 (stereo unspecified)
5 | 50.1 | – | 6.7 | – | CCN1CCN=C1CC1COc2ccccc2O1.Cl (stereo unspecified)
5 | 100 | 0.28 | 7 | – | Cl.c1ccc2c(c1)OCC(CC1=NCCN1)O2 (stereo unspecified)
< 5 | > 2.5 | – | 5.4 | – | Cl.N=C(N)CC1COc2ccccc2O1 (stereo unspecified)

Structure (SMILES) | pA2 [1] | Selectivity ratio [2] | logD [3] | pA2 [4] | pA2 [5]
c1ccc2c(c1)OCC(C1=NCCN1)O2 (stereo unspecified) [IDAZOXAN HYDROCHLORIDE] | – | – | 0.33 | – | –
